According to patent publication US20210253562A1, “ACYLSUFONAMIDE COMPOUNDS USEFUL AS EP3 RECEPTOR ANTAGONISTS” (Janssen Pharmaceutica NV, priority 2018, published 2021):
Read-outs that look alike come from different tables or passages of the source.

Molecular target: T1, EP3 membrane (EP3 receptor) (Homo sapiens, UniProt P43115)
T1 construct: purchased Millipore HTS092M
T1 sequence (P43115 1-390): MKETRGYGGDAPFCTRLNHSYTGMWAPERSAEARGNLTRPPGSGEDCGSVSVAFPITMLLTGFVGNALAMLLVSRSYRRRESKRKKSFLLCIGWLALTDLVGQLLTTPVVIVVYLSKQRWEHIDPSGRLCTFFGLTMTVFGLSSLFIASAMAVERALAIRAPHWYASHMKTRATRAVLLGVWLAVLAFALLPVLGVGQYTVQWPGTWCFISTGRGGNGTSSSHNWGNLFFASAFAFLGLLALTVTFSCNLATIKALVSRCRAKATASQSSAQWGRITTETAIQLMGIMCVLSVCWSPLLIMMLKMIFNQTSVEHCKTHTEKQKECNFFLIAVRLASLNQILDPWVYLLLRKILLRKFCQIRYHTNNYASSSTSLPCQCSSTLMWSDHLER
Assay: [3H]-PGE2 binding; EP3 competition binding (SPA)
Experimental: Biological Example 1: [3H]-PGE2 Binding
EP3 competition binding was determined using the following materials and experimental conditions: • Beads=Perkin Elmer RPNQ0001 • [3H]PGE2=Perkin Elmer NET428025UC • 384-well plate=Perkin Elmer 6007290 • EP3 membrane=Millipore HTS092M • Membrane concentration=2 μg/well • Beads concentration=0.25 mg/well • [3H]-PGE2=2 nM; DMSO—0.1% • Binding buffer=50 mM Tris, 10 mM MgCl2, 1 mM EDTA, PH 7.4.
The reaction system was prepared by mixing 5 μl of unlabeled compound; 5 μl of diluted [3H]-PGE2; 5 μl of diluted membrane; and 15 μl of SPA beads dissolved in binding buffer (adding in the following sequence: Unlabeled compound, [3H]-PGE2, Membrane and Beads).
The binding buffer was removed from refrigeration (@ 4° C.) and allowed to warm to room temperature. Test compound (@ stock concentration of […] in DMSO) was serial dilutes (1:3) with 100% DMSO using Echo plate. Diluted test compound (30 nL) was dispensed to the 384-well assay plate (using Echo 550 Labcyte System). To each well was then added assay buffer (5 μl) and each well was spun. Beads were weighed out, dissolved in assay buffer to a concentration of 0.25 mg/15 μl. Original membrane was diluted with assay buffer to a concentration of 2 μg/5 μl. Original [3H]-PGE2 with diluted with assay buffer to a concentration of 12 nM. To each test well were then added diluted [3H]-PGE2 (5 μl), diluted membrane (5 μl), and dissolved beads (15 μl). The plate was equilibrated at room temperature on a plate shaker for 2 hours and then read with a TOPCOUNT scintillation plate reader. Results were analyzed using a Prism program with non-linear regression, one-site fit for Ki.

SMILES | Ki | Ki (unit nM)
COc1nc2ccc(S(=O)(=O)NC(=O)NC/C=C3\CCCc4cnn(Cc5ccc(Cl)cc5Cl)c43)cc2o1 [Compound #177, (E)-N-((2-(1-(2,4-dichlorobenzyl)-1,4,5,6-tetrahydro-7H-indazol-7-ylidene)ethyl)carbamoyl)-2-methoxybenzo[d]oxazole-6-sulfonamide] | 1 nM | –
COc1nc2ccc(S(=O)(=O)NC(=O)NC/C(F)=C3\CCCc4cnn(Cc5ccc(Cl)cc5Cl)c43)cc2o1 [Compound #178, (Z)—N-((2-(1-(2,4-dichlorobenzyl)-1,4,5,6-tetrahydro-7H-indazol-7-ylidene)-2-fluoroethyl)carbamoyl)-2-methoxybenzo[d]oxazole-6-sulfonamide] | 6 nM | –
Cc1nn(C)cc1S(=O)(=O)NC(=O)NC/C(F)=C1\CCCc2cnn(Cc3ccc(Cl)cc3Cl)c21 [Compound #180, (Z)—N-((2-(1-(2,4-dichlorobenzyl)-1,4,5,6-tetrahydro-7H-indazol-7-ylidene)-2-fluoroethyl)carbamoyl)-1,3-dimethyl-1H-pyrazole-4-sulfonamide] | 164 nM | –
Cc1cc(S(=O)(=O)NC(=O)NC/C(F)=C2\CCCc3onc(Cc4ccc(Cl)cc4Cl)c32)sc1Cl [Compound #181, (Z)-5-chloro-N-((2-(3-(2,4-dichlorobenzyl)-6,7-dihydrobenzo[d]isoxazol-4(5H)-ylidene)-2-fluoroethyl)carbamoyl)-4-methylthiophene-2-sulfonamide] | 6 nM | –
Cc1nc2cc(S(=O)(=O)NC(=O)NC/C(F)=C3\CCCc4cnn(Cc5ccc(Cl)cc5Cl)c43)ccc2o1 [Compound #183, (Z)—N-((2-(1-(2,4-dichlorobenzyl)-1,4,5,6-tetrahydro-7H-indazol-7-ylidene)-2-fluoroethyl)carbamoyl)-2-methylbenzo[d]oxazole-5-sulfonamide] | 218 nM | –

Second part, the molecule after the results:

Ki | Ki (unit nM) | SMILES
59 nM | – | CC(C)n1cc(S(=O)(=O)NC(=O)NC/C=C2\CCCc3cnn(Cc4ccc(Cl)cc4Cl)c32)cn1 [Compound #173, (E)-N-((2-(1-(2,4-dichlorobenzyl)-1,4,5,6-tetrahydro-7H-indazol-7-ylidene)ethyl)carbamoyl)-1-isopropyl-1H-pyrazole-4-sulfonamide]
149 nM | – | COc1ccc(S(=O)(=O)NC(=O)NC/C(F)=C2\CCCc3cnn(Cc4ccc(Cl)cc4Cl)c32)cc1OC [Compound #174, (Z)—N-((2-(1-(2,4-dichlorobenzyl)-1,4,5,6-tetrahydro-7H-indazol-7-ylidene)-2-fluoroethyl)carbamoyl)-3,4-dimethoxybenzenesulfonamide]
16 nM | – | COc1cc(S(=O)(=O)NC(=O)NC/C(F)=C2\CCCc3cnn(Cc4ccc(Cl)cc4Cl)c32)ccc1Cl [Compound #175, (Z)-4-Chloro-N-((2-(1-(2,4-dichlorobenzyl)-1,4,5,6-tetrahydro-7H-indazol-7-ylidene)-2-fluoroethyl)carbamoyl)-3-methoxybenzenesulfonamide]
1 nM | – | O=C(NC/C=C1\CCCc2cnn(Cc3ccc(Cl)cc3Cl)c21)NS(=O)(=O)c1ccc2[nH]c(=O)oc2c1 [Compound #176, (E)-N-((2-(1-(2,4-dichlorobenzyl)-1,4,5,6-tetrahydro-7H-indazol-7-ylidene)ethyl)carbamoyl)-2-oxo-2,3-dihydrobenzo[d]oxazole-6-sulfonamide]
– | 0.4 nM | COc1ccc(S(=O)(=O)NC(=O)NC/C(F)=C2\CCCc3[nH]nc(Cc4ccc(Cl)cc4Cl)c32)cc1Cl [Compound #179, (Z)-3-chloro-N-((2-(3-(2,4-dichlorobenzyl)-1,5,6,7-tetrahydro-4H-indazol-4-ylidene)-2-fluoroethyl)carbamoyl)-4-methoxybenzenesulfonamide]
153 nM | – | CC(=O)Nc1nc(C)c(S(=O)(=O)NC(=O)NC/C(F)=C2\CCCc3cnn(Cc4ccc(Cl)cc4Cl)c32)s1 [Compound #182, (Z)—N-(5-(N-((2-(1-(2,4-dichlorobenzyl)-1,4,5,6-tetrahydro-7H-indazol-7-ylidene)-2-fluoroethyl)carbamoyl)sulfamoyl)-4-methylthiazol-2-yl)acetamide]
